ChEMBL document CHEMBL4342525, “Synthesis and Biochemical Evaluation of Noncyclic Nucleotide Exchange Proteins Directly Activated by cAMP 1 (EPAC1) Regulators” (J Med Chem, 2020)
Active and inactive are the calls of the source. The calls are words filed in the database; no cut-off is given here.

Columns and labels:
[1] = molecular target: T1, Rap guanine nucleotide exchange factor 3 (Homo sapiens) (UniProt O95398); test: Binding affinity to GST-tagged recombinant EPAC1 CNBD (169 to 318 residues) (unknown origin) expressed in Escherichia coli BL21 Star (DE3) assessed as relative fluorescence intensity incubated for 4 hrs by 8-NBD-cAMP competition binding assay relative to control; parameters: concentration or dose not given beside the values
T1 sequence (whole entry): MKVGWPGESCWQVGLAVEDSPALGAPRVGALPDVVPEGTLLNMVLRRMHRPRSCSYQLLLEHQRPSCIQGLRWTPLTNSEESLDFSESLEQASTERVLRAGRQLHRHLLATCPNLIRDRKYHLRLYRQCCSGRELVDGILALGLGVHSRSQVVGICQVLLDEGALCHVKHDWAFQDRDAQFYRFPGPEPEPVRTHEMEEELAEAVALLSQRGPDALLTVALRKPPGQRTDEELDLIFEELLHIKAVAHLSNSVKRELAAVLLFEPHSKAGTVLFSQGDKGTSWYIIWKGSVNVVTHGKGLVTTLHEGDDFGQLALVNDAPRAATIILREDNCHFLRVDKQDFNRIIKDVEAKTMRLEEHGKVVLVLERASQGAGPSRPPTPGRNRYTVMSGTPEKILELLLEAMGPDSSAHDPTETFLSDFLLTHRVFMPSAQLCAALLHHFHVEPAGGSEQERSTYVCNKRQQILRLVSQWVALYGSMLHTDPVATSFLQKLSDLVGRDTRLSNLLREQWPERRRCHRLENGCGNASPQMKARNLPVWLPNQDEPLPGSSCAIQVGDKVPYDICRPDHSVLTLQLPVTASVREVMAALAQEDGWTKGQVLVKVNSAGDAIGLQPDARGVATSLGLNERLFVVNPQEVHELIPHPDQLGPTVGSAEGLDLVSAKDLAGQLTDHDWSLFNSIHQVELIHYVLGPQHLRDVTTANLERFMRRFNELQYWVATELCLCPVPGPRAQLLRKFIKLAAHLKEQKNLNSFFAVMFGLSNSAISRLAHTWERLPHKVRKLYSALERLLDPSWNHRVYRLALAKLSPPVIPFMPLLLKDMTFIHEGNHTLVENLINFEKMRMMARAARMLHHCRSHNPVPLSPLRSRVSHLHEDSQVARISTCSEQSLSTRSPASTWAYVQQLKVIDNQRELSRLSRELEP

[2] = molecular target: T1, Rap guanine nucleotide exchange factor 3 (Homo sapiens); test: Activation of recombinant EPAC1 (149 to 881 residues) (unknown origin) assessed as stimulation of dissociation of fluorescent MANT-GDP from recombinant Rap1b at 10 uM in presence of excess nonfluorescent nucleotides by fluorescence based in-vitro GEF assay relative to cAMP
[3] = Activation of PKA in human U2OS cells stably transfected with EPAC1 assessed as increase in VASP phosphorylation at 100 uM by Western blot analysis; type: cell-based
[4] = molecular target: T1, Rap guanine nucleotide exchange factor 3 (Homo sapiens); test: Activation of EPAC1 (unknown origin) expressed in U2OS cells at 100 uM incubated for 10 mins using GST-RalGDS-RBD by Western blot analysis based active GTP-bound Rap1 pull down assay; type: cell-based
[5] = molecular target: T1, Rap guanine nucleotide exchange factor 3 (Homo sapiens); test: Activation of EPAC1 in HUVEC assessed as reduction in IL-6-promoted signaling by measuring pSTAT3 protein levels at 100 uM pre-incubated for 30 mins before IL6 and sIL6Ralpha stimulation for 5 hrs by Western blotting analysis; type: cell-based
[6] = molecular target: T1, Rap guanine nucleotide exchange factor 3 (Homo sapiens); test: Activation of EPAC1 in HUVEC assessed as reduction in IL-6-promoted signaling by measuring pERK protein levels at 100 uM pre-incubated for 30 mins before IL6 and sIL6Ralpha stimulation for 5 hrs by Western blotting analysis; type: cell-based
[7] = molecular target: T1, Rap guanine nucleotide exchange factor 3 (Homo sapiens); test: Activation of EPAC1 in HUVEC assessed as reduction in IL-6-promoted signaling by measuring pAKT protein levels at 100 uM pre-incubated for 30 mins before IL6 and sIL6Ralpha stimulation for 5 hrs by Western blotting analysis; type: cell-based
[8] = molecular target: T1, Rap guanine nucleotide exchange factor 3 (Homo sapiens); test: Activation of EPAC1 in HUVEC assessed as reduction in IL-6-promoted signaling by measuring VCAM1 protein expression at 100 uM pre-incubated for 30 mins before IL6 and sIL6Ralpha stimulation for 5 hrs by Western blotting analysis; type: cell-based
[9] = molecular target: T1, Rap guanine nucleotide exchange factor 3 (Homo sapiens); test: Activation of EPAC1 in HUVEC assessed as reduction in IL-6-promoted signaling by measuring ICAM1 protein expression at 100 uM pre-incubated for 30 mins before IL6 and sIL6Ralpha stimulation for 5 hrs by Western blotting analysis; type: cell-based
[10] = molecular target: T1, Rap guanine nucleotide exchange factor 3 (Homo sapiens); test: Activation of EPAC1 in HUVEC assessed as reduction in IL-6-promoted signaling by measuring SELE protein expression at 100 uM pre-incubated for 30 mins before IL6 and sIL6Ralpha stimulation for 5 hrs by Western blotting analysis; type: cell-based
[11] = molecular target: T2, Rap guanine nucleotide exchange factor 3 (Homo sapiens, UniProt O95398); test: Binding affinity to GST-tagged recombinant EPAC1 CNBD (169 to 318 residues) (unknown origin) expressed in Escherichia coli BL21 Star (DE3) incubated for 4 hrs by 8-NBD-cAMP competition binding assay
T2 sequence (O95398 whole entry): T1 sequence (whole entry)

[12] = Binding affinity to GST-tagged recombinant EPAC1 delta-DEP mutant (149 to 881 residues) (unknown origin) expressed in Escherichia coli BL21 Star (DE3) incubated for 4 hrs by 8-NBD-cAMP competition binding assay; parameters: species or system Homo sapiens
[13] = molecular target: T1, Rap guanine nucleotide exchange factor 3 (Homo sapiens); test: Activation of recombinant EPAC1 (149 to 881 residues) (unknown origin) assessed as stimulation of dissociation of fluorescent MANT-GDP from recombinant Rap1b at 500 uM in presence of excess nonfluorescent nucleotides by fluorescence based in-vitro GEF assay relative to cAMP
[14] = molecular target: T1, Rap guanine nucleotide exchange factor 3 (Homo sapiens); test: Activity at recombinant EPAC1 (149 to 881 residues) (unknown origin) assessed as reduction in cAMP-induced stimulation of dissociation of fluorescent MANT-GDP from recombinant Rap1b at 500 uM in presence of excess nonfluorescent nucleotides by fluorescence based in-vitro GEF assay
[15] = molecular target: T2, Rap guanine nucleotide exchange factor 3; test: Activation of recombinant EPAC1 (149 to 881 residues) (unknown origin) assessed as stimulation of dissociation of fluorescent MANT-GDP from recombinant Rap1b in presence of excess nonfluorescent nucleotides by fluorescence based in-vitro GEF assay
[16] = molecular target: T1, Rap guanine nucleotide exchange factor 3 (Homo sapiens); test: Activation of EPAC1 (unknown origin) expressed in U2OS cells at 100 uM pre-incubated for 10 mins before 8-pCPT-2'-O-Me-cAMP stimulation for 10 mins using GST-RalGDS-RBD by Western blot analysis based active GTP-bound Rap1 pull down assay; type: cell-based

Compound	Activity [1]	further results
COc1ccc2ccc(OCC(=O)NS(=O)(=O)c3c(C)cc(C)cc3C)cc2c1	49%	–
COc1ccc2ccc(OCC(=O)NS(=O)(=O)c3cc(C)cc(Br)c3)cc2c1	29%	–
Cc1ccc(S(=O)(=O)NC(=O)COc2ccc3cc(Cl)ccc3c2)c(C)c1	50%	–
Cc1cc(C)c(S(=O)(=O)NC(=O)COc2ccc3cccnc3c2)c(C)c1	92%	–
Cc1cc(C)c(S(=O)(=O)N2CCC(Oc3ccc4ccccc4c3)CC2)c(C)c1	105%	–
CC(=O)c1c(OCC(=O)NS(=O)(=O)c2c(C)cc(C)cc2C)ccc2ccccc12	104%	–
COC(=O)c1cccc(S(=O)(=O)NC(=O)COc2ccc3ccccc3c2)c1	71%	–
Cc1cc(C)c(S(=O)(=O)NC(=O)CN2CCN(c3ccccn3)CC2)c(C)c1	119%	–
COc1ccc(OC)c(S(=O)(=O)NC(=O)COc2ccc3ccc(OC)cc3c2)c1	49%	–
Cc1cc(C)c(S(=O)(=O)NC(=O)COc2cccc3ccccc23)c(C)c1	94%	–
Cc1ccc(S(=O)(=O)NC(=O)COc2cccc3ccccc23)c(C)c1	71%	–
Cc1cc(C)c(S(=O)(=O)NC(=O)CSc2ccc3ccccc3c2)c(C)c1	92%	–
Cc1cc(C)c(S(=O)(=O)NC(=O)CSc2nc3ccccc3c(=O)[nH]2)c(C)c1	95%	–
O=C(COc1ccc2ccccc2c1)NS(=O)(=O)c1cccc(-c2ccccc2)c1	35%	–
Cc1cc(Br)cc(S(=O)(=O)NC(=O)COc2ccc3ccccc3c2)c1	58%	–
Cc1cc(C)c(S(=O)(=O)NC(=O)COc2ccc3c(c2)NC(=O)CC3)c(C)c1	77%	–
Cc1ccc(S(=O)(=O)NC(=O)COc2ccc3ccc(Cl)cc3c2)c(C)c1	66%	–
Cc1cc(C)c(S(=O)(=O)NC(=O)COc2ccc3c(c2)CCCC3)c(C)c1	77%	–
Cc1cc(C)cc(S(=O)(=O)NC(=O)COc2ccc3ccccc3c2)c1	38%	–
Nc1ccc(S(=O)(=O)NC(=O)COc2ccc3ccccc3c2)cc1F	inactive	Activity [2]: Active; Activity [3]: Not Active; Activity [4]: Active; Activity [5]: inactive; Activity [6]: inactive; Activity [7]: inactive; Activity [8]: inactive; Activity [9]: inactive; Activity [10]: inactive
Cc1cc(C)c(S(=O)(=O)NC(=O)CNc2cccc(Cl)c2)c(C)c1	88%	–
Cc1ccc(S(=O)(=O)NC(=O)COc2ccc3[nH]ncc3c2)c(C)c1	94%	–
O=C(COc1ccc2ccccc2c1)NS(=O)(=O)c1cccc([N+](=O)[O-])c1	67%	–
O=C(COc1ccc2ccccc2c1)NS(=O)(=O)c1ccc(F)cc1	81%	–
Cc1cc(C)c(S(=O)(=O)NC(=O)C(F)Oc2ccc3ccccc3c2)c(C)c1 (stereo not given)	82%	–
COc1ccc2ccc(OCC(=O)NS(=O)(=O)c3cc(Cl)cc(Cl)c3)cc2c1	54%	–
COc1ccc2ccc(OCC(=O)NS(=O)(=O)c3ccc([N+](=O)[O-])cc3OC)cc2c1	24%	–

Compound	Activity [1]	further results
Cc1ccc(S(=O)(=O)NC(=O)COc2ccc3cc(F)ccc3c2)c(C)c1	55%	–
Cc1cc(Nc2ccc(C(F)(F)F)cn2)cc(S(=O)(=O)NC(=O)COc2ccc3ccccc3c2)c1	20%	–
O=C(COc1ccc2ccccc2c1)NS(=O)(=O)c1cccc(F)c1	82%	–
O=C(COc1ccc2ccccc2c1)NS(=O)(=O)c1ccc([N+](=O)[O-])c(F)c1	81%	IC50 [11]: 32.5 µM; Activity [2]: Active; Activity [3]: Not Active; Activity [4]: Active; Activity [5]: inactive; Activity [6]: inactive; Activity [7]: inactive; Activity [8]: inactive; Activity [9]: inactive; Activity [10]: inactive
Cc1cc(C)c(S(=O)(=O)NC(=O)CN2CCn3c(nnc3C(F)(F)F)C2)c(C)c1	104%	–
Cc1cc(C)c(S(=O)(=O)NCCOc2ccc3ccccc3c2)c(C)c1	105%	–
COc1ccc(OC)c(S(=O)(=O)NC(=O)COc2ccc3ccccc3c2)c1	72%	–
Cc1ccc(S(=O)(=O)NCCOc2ccc3ccccc3c2)c(C)c1	81%	–
Cc1cc(-c2ccco2)cc(S(=O)(=O)NC(=O)COc2ccc3ccccc3c2)c1	40%	–
O=C(COc1ccc2ccccc2c1)NS(=O)(=O)c1cccc(-c2ccoc2)c1	53%	–
Cc1cc(C)c(S(=O)(=O)NC(=O)CN2CCc3ccccc3C2)c(C)c1	102%	–
Cc1cc(C)c(S(=O)(=O)NC(=O)COc2ccc3ccccc3c2)c(C)c1	81%	–
O=C(COc1ccc2ccccc2c1)NS(=O)(=O)c1ccccc1	49%	–
COc1ccc2ccc(OCC(=O)NS(=O)(=O)c3ccc(OC)c(OC)c3)cc2c1	23%	–
COc1cccc(S(=O)(=O)NC(=O)COc2ccc3ccccc3c2)c1	33%	–
Cc1ccc(S(=O)(=O)NC(=O)COc2ccc3ccccc3c2)cc1	44%	–
COc1ccc(S(=O)(=O)NC(=O)COc2ccc3ccccc3c2)c(OC)c1	23%	IC50 [12]: 4.9 µM; Activity [13]: 2%; Activity [14]: Active; EC50 [15]: 5 µM; Activity [16]: Active; Activity [2]: Active; Activity [3]: Not Active; Activity [4]: Active
COc1ccc(S(=O)(=O)NC(=O)COc2ccc3ccccc3c2)cc1OC	50%	–
Cc1cc(C)c(S(=O)(=O)NC(=O)CNc2ccc3ccccc3c2)c(C)c1	97%	–
Cc1cc(-c2cncc(F)c2)cc(S(=O)(=O)NC(=O)COc2ccc3ccccc3c2)c1	36%	–
Cc1ccc(S(=O)(=O)NC(=O)COc2ccc3[nH]ccc3c2)c(C)c1	91%	–
Cc1ccc(S(=O)(=O)NC(=O)C(C)(C)Oc2ccc3ccccc3c2)c(C)c1	76%	–
O=C(COc1ccc2ccccc2c1)NS(=O)(=O)c1ccccc1F	69%	–
COc1cc2c(cc1OC)CN(CC(=O)NS(=O)(=O)c1c(C)cc(C)cc1C)CC2	102%	–
O=C(COc1ccc2ccccc2c1)NS(=O)(=O)C1CCCCC1	81%	–
Cc1cc(-c2ccnn2C)cc(S(=O)(=O)NC(=O)COc2ccc3ccccc3c2)c1	34%	–
